Measurements taken from patent US20100286247A1, “Methods of Protection from Oxidative Stress” (Trustees of Boston University, priority 2005, published 2010).
Entries after “also recorded” stand apart in the source; their conditions may differ. {P} = phosphate

How the values were obtained:
[1] = system: intracellular ROS in normal newborn human dermal fibroblasts; assay: Dichlorofluorescein diacetate (DCF) assay of intracellular ROS, FACScan; format: cell-based; conditions: for DCF fluorescence (intracellular ROS) compared to diluent: 100 μM pTT / pCC, 40 μM TO / TOC1 / TOC2
Protocol: Normal newborn human dermal fibroblasts were cultured from foreskin specimens into DMEM supplemented with 10% CS as described above. Due to the large number of cells needed for time course experiments, and to minimize donor variability, in dichlorofluorescein diacetate FACS experiments cells from three different donors were combined.
Purified lyophilized oligonucleotides were obtained and prepared for cell treatment as described above. All treatments involved a single stimulation with T-oligo, after which cells were harvested at various times without medium changes or addition of more T-oligo. Treatment doses were 100 μM pTT and 40 μM TO except in dose-response experiments; these concentrations were determined in previous experiments to be optimal for measuring DNA damage responses using these T-oligos.^142,150,228
Complementary and scrambled oligonucleotides were chosen for each T-oligo. pAA and pCC were used as controls for pTT, and the complementary 11-base pCTAACCCTAAC (TOC1, SEQ ID NO: 22) and a scrambled sequence pGATCGATCGAT (TOC2, SEQ ID NO: 23) were used as controls for the T-oligo TO.
(§1) H2DCFDA stock solution (1 mg/ml) was thawed and diluted in Hanks' Balanced Salt Solution, 1× liquid without phenol red (GIBCO Invitrogen, Carlsbad, Calif.), to a working concentration of 100 μM immediately before use. H2DCFDA is converted by intracellular esterases to dichlorofiuorescein (DCF). When oxidized by intracellular ROS, it will fluoresce at 530 nm when excited by 480 nm light. […] All work involving DCF was conducted in minimal room light. Peaks on FACScan plots that shift to the right indicate greater fluorescence and increased ROS levels. For NADPH oxidase inhibitor studies using DPI,^237,239 the DPI stock solution was added directly to DCF treatment solution to achieve a final DPI treatment concentration of 50 μM.
Hydrogen peroxide positive controls were used to rule out saturation of the DCF probe in the T-oligo dose response experiments. Fibroblasts were exposed to 1 mM, 5 mM and 10 mM H2O2 solutions in PBS for 15 minutes following DCF incubation for 30 minutes, harvested and analyzed as described above.
The horseradish peroxidase assay data was analyzed by one-way ANOVA. DCF assay FACScan results were analyzed using Cellquest software (Becton-Dickinson, Calif.). All peak positions on x-axis of the fluorescence histogram plot were determined visually (using the software) and recorded as a number. Peak position values were then compared using one-way ANOVA.

NAD(P)H oxidase = assay: DCF assay with NADPH oxidase inhibitor DPI; format: cell-based, human; conditions: 50 μM DPI in DCF solution; pTT or TO treated fibroblasts
Protocol: as §1
Because p53-dependent ROS production in fibroblasts has been attributed to NAD(P)H oxidase activity,^169 a specific NADPH oxidase inhibitor, diphenyliodonium chloride (DPI),^239 was added to the DCF assay medium to determine the role of NADPH oxidases in T-oligo mediated ROS induction.

Compound	DCF fluorescence (intracellular ROS) compared to diluent [1]	further results
OO [H2O2, Hydrogen peroxide, reference compound]		DCF peak shift of positive control ([1]; 1 mM H2O2 for 15 minutes): greater shift than any of the T-oligo treatments
pCTAACCCTAAC (5' {P}, sugars by position and backbone not given here) [TOC1, complementary 11-base control oligonucleotide for TO, reference compound]	not significantly different from each other	
pGATCGATCGAT (5' {P}, sugars by position and backbone not given here) [TOC2, reference compound]	not significantly different from each other; also recorded: overlapping with diluent curve	
[Cl-].c1ccc([I+]c2ccccc2)cc1 [DPI, diphenyliodonium chloride]		effect of DPI on T-oligo-stimulated ROS (DCF fluorescence) (NAD(P)H oxidase): consistently abrogated the increase in ROS stimulated by T-oligos
